Measurements as given in PubChem BioAssay (NCI).
“And” between values parts separate entries of the source, which are not always exact repeats. Equal entries are not always repeated.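 Test compounds were applied to cells in 96-well plates for 48 hours at 5 doses. GI50 = concentration required for 50% inhibition of growth. Definition used: TGI = concentration required for complete inhibition of growth.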

Legend:
Experiment in all cases: growth of human tumour cells (NCI), 48 h
HOP-62 NSCLC = tested on: HOP-62 NSCLC
KM12 colon = tested on: KM12 colon
NCI-H226 lung = tested on: NCI-H226 lung
NCI-H522 lung = tested on: NCI-H522 lung
SF-295 CNS = tested on: SF-295 CNS
SF-539 CNS = tested on: SF-539 CNS
SK-MEL-28 melanoma = tested on: SK-MEL-28 melanoma
T-47D breast = tested on: T-47D breast
LXFL 529 NSCLC = tested on: LXFL 529 NSCLC

Structure (SMILES) | GI50 (HOP-62 NSCLC) | TGI (HOP-62 NSCLC) | GI50 (KM12 colon) | TGI (KM12 colon) | GI50 (NCI-H226 lung) | TGI (NCI-H226 lung) | GI50 (NCI-H522 lung) | TGI (NCI-H522 lung) | GI50 (SF-295 CNS) | TGI (SF-295 CNS) | GI50 (SF-539 CNS) | TGI (SF-539 CNS) | GI50 (SK-MEL-28 melanoma) | TGI (SK-MEL-28 melanoma) | GI50 (T-47D breast) | TGI (T-47D breast) | TGI (LXFL 529 NSCLC)
CCOC(=O)C(Cc1c[nH]c2c(N(CCO)CCO)cccc12)(NC(C)=O)C(=O)OCC | > 1000 µM | > 1000 µM | 302 µM | 978 µM | 439 µM | > 1000 µM | > 1000 µM | > 1000 µM | 148 µM | > 1000 µM | > 1000 µM | > 1000 µM | 736 µM | > 1000 µM | 396 µM | > 1000 µM | 
C#Cc1cccc(N2C(=O)c3c(c(-c4ccccc4)c(-c4ccc(Cc5ccc(-c6c(-c7ccccc7)c7c(c(-c8ccccc8)c6-c6ccccc6)C(=O)N(c6cccc(C#C)c6)C7=O)cc5)cc4)c(-c4ccccc4)c3-c3ccccc3)C2=O)c1 |  | > 100 µM |  | > 100 µM |  |  |  | > 100 µM |  | > 100 µM |  | > 100 µM |  | > 100 µM |  |  | > 100 µM
COc1ccc(-c2ccncc2)cc1C(N)=O | > 25 µM | > 25 µM | > 25 µM | > 25 µM | > 25 µM | > 25 µM | > 25 µM | > 25 µM | > 25 µM | > 25 µM | > 25 µM | > 25 µM | > 25 µM | > 25 µM | > 25 µM | > 25 µM | 
COc1ccc(/C=C/C(=O)/C=C/c2cc3ccccc3[nH]c2=O)cc1 | 4.67 µM | 17.8 µM | 2.62 µM | 6.95 µM | 4.42 µM | 19.7 µM | 1.97 µM | 4.67 µM | 2.65 µM | 8.02 µM | 2.63 µM | 7.13 µM | 13.9 µM | 34.7 µM | 3.34 µM | 12.4 µM | 
COc1ccc(NC(=O)CC2SC(=Nc3ccccc3C)NC2=O)c([N+](=O)[O-])c1 (stereo unspecified) |  | > 100 µM |  | > 100 µM |  | > 100 µM |  | 80.5 µM |  | > 100 µM |  | > 100 µM |  | > 100 µM |  |  | > 100 µM
C/C=C(/I)CBr |  | 43.4 µM |  |  |  | 38.5 µM |  | 4.35 µM |  |  |  | 32.5 µM |  | 52.6 µM |  |  | 27.6 µM
CC(C)Nc1cc(-c2c[nH]c(C(=O)N[C@H](CO)c3cccc(Cl)c3)c2)c(Cl)cn1 | 3.93 µM and 0.479 µM | 26.4 µM and > 10 µM | 0.751 µM and 0.444 µM | 15.5 µM and > 10 µM | 3.17 µM and > 3.67 µM | 24.2 µM and > 10 µM | 2.33 µM and 2.35 µM | 19.8 µM and > 10 µM | 4.22 µM and > 8.07 µM | 18.1 µM and > 10 µM | 6.04 µM | 20.2 µM and > 10 µM | 0.126 µM and 0.0718 µM |  | 1.77 µM and > 5.23 µM | 16.8 µM and > 10 µM | 
CC(C)c1c(-c2ccccc2)nc2c(C#N)c[nH]n2c1=O | 25.4 µM | > 95.7 µM | 31.7 µM | > 100 µM | 27 µM | > 87.7 µM | 26 µM | 80 µM | 28.7 µM | > 84 µM | 29.4 µM | > 100 µM | 33.5 µM | > 100 µM | 25.2 µM | 87.6 µM | 
CC(C)c1cnn2c(NCc3ccccc3)cc(NC[C@H]3CCNC[C@@H]3O)nc12 | 0.225 µM and 0.348 µM | 1.33 µM and 3.13 µM | 0.353 µM and 0.407 µM | 3.31 µM and 2.5 µM | 0.766 µM and 0.725 µM | 4.01 µM and 5.53 µM | 0.844 µM and 0.438 µM | 2.7 µM and 2.43 µM | 1.15 µM and 0.508 µM | 11.1 µM and 9.32 µM | 0.292 µM and 0.436 µM | 1.68 µM and 1.43 µM | 0.388 µM and 0.343 µM | 2.43 µM and 2.41 µM | 0.472 µM and 0.898 µM | 7.58 µM and 9.5 µM | 
S=c1snc2n1CCN2 | > 100 µM | > 100 µM | > 100 µM | > 100 µM | 32.3 µM | > 100 µM | 40.9 µM | > 100 µM | > 100 µM | > 100 µM | > 100 µM | > 100 µM | 64.4 µM | > 100 µM | 0.85 µM | 37.4 µM | 
COc1ccc(NC(=O)CSC2=C(Nc3cccc(Br)c3)C(=O)N(Cc3ccccc3)C2=O)cc1Cl | > 100 µM | > 100 µM | 65.5 µM | > 100 µM | > 100 µM | > 100 µM | 6.85 µM | 82.2 µM | > 100 µM | > 100 µM | > 100 µM | > 100 µM | > 100 µM | > 100 µM | > 100 µM | > 100 µM | 
O=C(NOC[C@H](O)CO)c1ccc(F)c(F)c1Nc1ccc(I)cc1F | 0.00599 µM | > 100 µM | 0.0456 µM and 0.036 µM | > 100 µM | 0.717 µM and 1.43 µM | > 100 µM |  | > 100 µM | 14.5 µM and > 10 µM | > 100 µM | 15.8 µM and > 10 µM | > 100 µM | < 0.01 µM and 0.00192 µM |  | 51.5 µM and > 4.02 µM | > 100 µM | 
CCOC(=O)Nc1nc2ccc(OC)cc2s1 | > 100 µM | > 100 µM | > 100 µM | > 100 µM | > 100 µM | > 100 µM | > 100 µM | > 100 µM | > 100 µM | > 100 µM | > 100 µM | > 100 µM | > 100 µM | > 100 µM | > 100 µM | > 100 µM | 
COc1cc2nc(SCc3cc(OC)c(OC)c(OC)c3)n(Cc3ccccc3)c(=O)c2cc1OC | 4.48 µM | 20.6 µM | 2.55 µM | > 100 µM | 6.85 µM | > 100 µM | 0.744 µM | 5.83 µM | 2.49 µM | 11.7 µM | 2.81 µM | 16.2 µM | 3.88 µM | > 100 µM | 4.54 µM | > 65.9 µM | 
O=C(/C=C/C12c3ccccc3C(c3ccccc31)C1C(=O)NC(=O)C12)c1ccc(Cl)cc1Cl (stereo unspecified) | 2.06 µM | 4.71 µM | 1.76 µM | 3.43 µM | 2.14 µM | 5.91 µM | 1.69 µM | 3.41 µM | 1.78 µM | 3.63 µM | 1.59 µM | 2.96 µM | 1.78 µM | 3.27 µM | 2.48 µM | 9.59 µM | 
COc1ccccc1C#Cc1ccccc1C#CCCCCO | 14.6 µM | > 100 µM | 23.1 µM | 57.8 µM | 21.4 µM | 49.2 µM | 16.3 µM | 33.8 µM | 22.1 µM | 45.1 µM | 14.4 µM | 29.1 µM | 16.8 µM | 33.4 µM | 18.5 µM | 65.8 µM | 
